# Species on record: Rattus norvegicus
# Test: DrugMatrix - Regimen: Daily Repeat
# Format: toxicity, organism-based, Sprague-Dawley
# Parameters: regimen Daily Repeat, gender Male, age 6-8 weeks
# Conditions: in vivo, po, route oral GAVAGE, […]; for ABSOLUTE BASOPHIL / ABSOLUTE EOSINOPHIL / ABSOLUTE LYMPHOCYTE / ABSOLUTE MONOCYTE / ABSOLUTE SEGMENTED NEUTROPHIL / BASOPHIL / EOSINOPHIL / ERYTHROCYTE COUNT / HEMATOCRIT / HEMOGLOBIN / LEUKOCYTE COUNT / LYMPHOCYTE / MEAN CORPUSCULAR HEMOGLOBIN / MEAN CORPUSCULAR HEMOGLOBIN CONCENTRATION / MEAN CORPUSCULAR VOLUME / MONOCYTE / NEUTROPHIL / NUCLEATED RED BLOOD CELLS / PLATELET COUNT: tissue Blood; for ALANINE AMINOTRANSFERASE / ALBUMIN / ALKALINE PHOSPHATASE / ASPARTATE AMINOTRANSFERASE / BLOOD UREA NITROGEN / CARBON DIOXIDE / CHLORIDE / CHOLESTEROL / CREATINE PHOSPHOKINASE / CREATININE / GLUCOSE / LACTATE DEHYDROGENASE / LIPASE / PHOSPHORUS / POTASSIUM / SODIUM / TOTAL BILIRUBIN / TOTAL PROTEIN / URIC ACID: tissue Plasma
# [1] = 100 mg/kg, 120 h, dose level Low, time 5 day
# [2] = 700 mg/kg, 72 h, dose level High, time 3 day
# [3] = 700 mg/kg, 120 h, dose level High, time 5 day
smiles,measurement,setting,value
CC(=O)Nc1cccc(O)c1 [METACETAMOL],ABSOLUTE BASOPHIL,[1],0 CELLS/uL
same,ABSOLUTE EOSINOPHIL,[1],0 CELLS/uL
same,ABSOLUTE LYMPHOCYTE,[1],14298.33 CELLS/uL
same,ABSOLUTE MONOCYTE,[1],106.33 CELLS/uL
same,ABSOLUTE SEGMENTED NEUTROPHIL,[1],1828.67 CELLS/uL
same,BASOPHIL,[1],0%
same,EOSINOPHIL,[1],0%
same,ERYTHROCYTE COUNT,[1],5.63 x10E6/uL
same,HEMATOCRIT,[1],35%
same,HEMOGLOBIN,[1],13.73 G/DL
same,LEUKOCYTE COUNT,[1],16.23 x10E3/uL
same,LYMPHOCYTE,[1],88%
same,MEAN CORPUSCULAR HEMOGLOBIN,[1],24.43 pg
same,MEAN CORPUSCULAR HEMOGLOBIN CONCENTRATION,[1],39.23 G/DL
same,MEAN CORPUSCULAR VOLUME,[1],62.23 fL
same,MONOCYTE,[1],0.67%
same,NEUTROPHIL,[1],11.33%
same,NUCLEATED RED BLOOD CELLS,[1],0.33 /100WBC
same,PLATELET COUNT,[1],1235.67 x10E3/uL
same,ALANINE AMINOTRANSFERASE,[1],58.33 u/L
same,ALBUMIN,[1],4.03 G/DL
same,ALKALINE PHOSPHATASE,[1],434.67 u/L
same,ASPARTATE AMINOTRANSFERASE,[1],95 u/L
same,BLOOD UREA NITROGEN,[1],14.67 mg/dL
same,CARBON DIOXIDE,[1],26.67 mmol/L
same,CHLORIDE,[1],101 MEQ/L
same,CHOLESTEROL,[1],68.33 mg/dL
same,CREATINE PHOSPHOKINASE,[1],455.33 u/L
same,CREATININE,[1],0.2 mg/dL
same,GLUCOSE,[1],151 mg/dL
same,LACTATE DEHYDROGENASE,[1],549 u/L
same,LIPASE,[1],10.33 u/L
same,PHOSPHORUS,[1],11.03 mg/dL
same,POTASSIUM,[1],6.46 MEQ/L
same,SODIUM,[1],140.67 MEQ/L
same,TOTAL BILIRUBIN,[1],0.17 mg/dL
same,TOTAL PROTEIN,[1],5.73 G/DL
same,URIC ACID,[1],1.6 mg/dL
same,ABSOLUTE BASOPHIL,[2],0 CELLS/uL
same,ABSOLUTE EOSINOPHIL,[2],0 CELLS/uL
same,ABSOLUTE LYMPHOCYTE,[2],14734.67 CELLS/uL
same,ABSOLUTE MONOCYTE,[2],227.67 CELLS/uL
same,ABSOLUTE SEGMENTED NEUTROPHIL,[2],1637.67 CELLS/uL
same,BASOPHIL,[2],0%
same,EOSINOPHIL,[2],0%
same,ERYTHROCYTE COUNT,[2],5.31 x10E6/uL
same,HEMATOCRIT,[2],34.37%
same,HEMOGLOBIN,[2],13.6 G/DL
same,LEUKOCYTE COUNT,[2],16.6 x10E3/uL
same,LYMPHOCYTE,[2],89%
same,MEAN CORPUSCULAR HEMOGLOBIN,[2],25.6 pg
same,MEAN CORPUSCULAR HEMOGLOBIN CONCENTRATION,[2],39.6 G/DL
same,MEAN CORPUSCULAR VOLUME,[2],64.7 fL
same,MONOCYTE,[2],1.33%
same,NEUTROPHIL,[2],9.67%
same,NUCLEATED RED BLOOD CELLS,[2],0 /100WBC
same,PLATELET COUNT,[2],1189.67 x10E3/uL
same,ALANINE AMINOTRANSFERASE,[2],61.67 u/L
same,ALBUMIN,[2],4.37 G/DL
same,ALKALINE PHOSPHATASE,[2],420.33 u/L
same,ASPARTATE AMINOTRANSFERASE,[2],80.33 u/L
same,BLOOD UREA NITROGEN,[2],15.67 mg/dL
same,CARBON DIOXIDE,[2],32.33 mmol/L
same,CHLORIDE,[2],98.67 MEQ/L
same,CHOLESTEROL,[2],94 mg/dL
same,CREATINE PHOSPHOKINASE,[2],171 u/L
same,CREATININE,[2],0.17 mg/dL
same,GLUCOSE,[2],144 mg/dL
same,LACTATE DEHYDROGENASE,[2],137 u/L
same,LIPASE,[2],10 u/L
same,PHOSPHORUS,[2],10.6 mg/dL
same,POTASSIUM,[2],6.44 MEQ/L
same,SODIUM,[2],143.63 MEQ/L
same,TOTAL BILIRUBIN,[2],0.27 mg/dL
same,TOTAL PROTEIN,[2],6 G/DL
same,URIC ACID,[2],1.33 mg/dL
same,ABSOLUTE BASOPHIL,[3],0 CELLS/uL
same,ABSOLUTE EOSINOPHIL,[3],0 CELLS/uL
same,ABSOLUTE LYMPHOCYTE,[3],13480 CELLS/uL
same,ABSOLUTE MONOCYTE,[3],247.33 CELLS/uL
same,ABSOLUTE SEGMENTED NEUTROPHIL,[3],2206 CELLS/uL
same,BASOPHIL,[3],0%
same,EOSINOPHIL,[3],0%
same,ERYTHROCYTE COUNT,[3],5.72 x10E6/uL
same,HEMATOCRIT,[3],35.17%
same,HEMOGLOBIN,[3],13.93 G/DL
same,LEUKOCYTE COUNT,[3],15.93 x10E3/uL
same,LYMPHOCYTE,[3],84.67%
same,MEAN CORPUSCULAR HEMOGLOBIN,[3],24.37 pg
same,MEAN CORPUSCULAR HEMOGLOBIN CONCENTRATION,[3],39.6 G/DL
same,MEAN CORPUSCULAR VOLUME,[3],61.53 fL
same,MONOCYTE,[3],1.67%
same,NEUTROPHIL,[3],13.67%
same,NUCLEATED RED BLOOD CELLS,[3],0.67 /100WBC
same,PLATELET COUNT,[3],1165.67 x10E3/uL
same,ALANINE AMINOTRANSFERASE,[3],57 u/L
same,ALBUMIN,[3],4.27 G/DL
same,ALKALINE PHOSPHATASE,[3],454.33 u/L
same,ASPARTATE AMINOTRANSFERASE,[3],78.67 u/L
same,BLOOD UREA NITROGEN,[3],15.67 mg/dL
same,CARBON DIOXIDE,[3],27.33 mmol/L
same,CHLORIDE,[3],105 MEQ/L
same,CHOLESTEROL,[3],78.67 mg/dL
same,CREATINE PHOSPHOKINASE,[3],239.33 u/L
same,CREATININE,[3],0.25 mg/dL
same,GLUCOSE,[3],169.67 mg/dL
same,LACTATE DEHYDROGENASE,[3],132 u/L
same,LIPASE,[3],10.33 u/L
same,PHOSPHORUS,[3],10.87 mg/dL
same,POTASSIUM,[3],7.12 MEQ/L
same,SODIUM,[3],151.07 MEQ/L
same,TOTAL BILIRUBIN,[3],0.2 mg/dL
same,TOTAL PROTEIN,[3],5.97 G/DL
same,URIC ACID,[3],2 mg/dL
